Measurements reported in US6599944B1, “Ophtalmic compound with extended dwell time on the eye” (Bausch & Lomb Incorporated, priority 1996, dated 2003).

Test system: eye of experimental rabbits
Assay: long-term (5 weeks) eye tolerability test of preserved ophthalmic gel compositions
Type: in vivo, rabbits (Charles River)
Procedure: Long-term tests were carried out on experimental rabbits (Charles River) with the compositions of Example 1 and 2. In parallel, comparative tests were carried out with a corresponding control group in which the compositions employed were in every respect the same but differed with regard to the preservative. Instead of benzyllauryldimethylammonium chloride, on the one hand benzalkonium chloride was used in the same concentration, and on the other hand, thiomersal (standard concentration) =40 μg/g was used.

[1] = Carbopol gel, benzalkonium chloride in same concentration as Examples 1 and 2, thiomersal 40 μg/g

For `C[CH2][Hg][S]c1ccccc1C(=O)[O-].[Na+]` [thiomersal], the “damage to the tissue of the eye at the end of the test” value [1] was “in some cases also damage to the eye”, the “irritation in the eye at the end of the test” value [1] was “severe irritation” and the “rabbits showing severe irritation at the end of the test” value (control groups with other preservative) was “seven of eight”.
